How the values were obtained:
NCI-N87 cell = assay: Inhibition of cell proliferation, Cell-Titer-Glo, NCI-N87; type: cell-based, human; conditions: conclusion
From the text: Purpose of the assay: the inhibitory activity of the assay compounds on cell proliferation was detected. Principle of the assay: the luciferase in a Cell-Titer-Glo reagent produces oxidized luciferin with luciferin, oxygen and ATP as reaction substrates, and releases energy in the form of light. Since the luciferase reaction requires ATP, the total amount of light generated by the reaction is proportional to the total amount of ATP that reflects cell viability. Cell line: NCI-N87 cell line (ATCC-CRL-5822), BT-474 cell line (ATCC-HTB-20), OE21 (ECACC-96062201) Cell culture medium: […] L-[…]×, Gibco#25030-081; penicillin-streptomycin Hyclone# SV30010) Cell Titer-Glo® cell viability assay kit with luminescence (Promega #G7573) 384-well cell culture plate (Greiner # 781090) Compound plate (LABCYTE # LP-0200) CO2 incubator (Thermo#371) Vi-cell cell counter (Beckman Coulter) According to the schematic diagram of the cell seed plate, cells were seeded in a 384- or 96-well plate at a density of 1000 cells per well and 25 μL per well, and 25 μL of PBS was added to the wells near edge of the place where no cells were seeded. (1) The stock solution of the compounds has a concentration of 10 mM, and the compounds were diluted with DMSO to an initial concentration of 4 mM. […] After 10 minutes, the plate was read on PerkinElmer Envision, and the […] reading time was set to 0.2 second.

[1] = system: subcutaneous xenograft tumor of human esophageal carcinoma OE21 cells; assay: In vivo pharmacodynamics, OE21 subcutaneous xenograft (Assay Example 5); set-up: species or system mouse
Method: Purpose of the assay: in vivo efficacy of the assay compound on subcutaneous xenograft tumor of human esophageal carcinoma OE21 cells in a BALB/c nude mouse model was evaluated.
Animals of the assay: female BALB/c nude mice, 6-8 weeks old, weighted 17-23 grams; supplier: shanghai sippr bk laboratory animals Ltd.
Human esophageal carcinoma OE21 cells were cultured in monolayer in vitro. The culture conditions were RPMI-1640 medium plus 10% fetal bovine serum, 100 U/mL penicillin, 100 U/mL streptomycin and 2 mM glutamine, 37° C., 5% CO2. The passaging was performed by conventional digestion with trypsin-EDTA twice a week. When the cell saturation was 80%-90%, the cells were collected, counted and inoculated.
0.1 ml […] OE21 cells (PBS) were inoculated subcutaneously on the right back of each mouse. When the average tumor volume reached 112 mm^3, administration to each group was started.
The assay compound was formulated into a 0.15 mg/mL to 0.3 mg/mL clear or suspension solution in the solvents of 10% NMP+10% ethylene glycol stearate+80% water.
The assay index was to investigate whether tumor growth is inhibited, delayed or cured. Tumor diameter was measured twice a week with vernier caliper. The calculation formula of tumor volume was: V=0.5a×b^2, wherein a and b represent the long and short diameters of tumor, respectively.
The antitumor efficacy of the compounds was evaluated by TGI (%) or relative tumor proliferation rate T/C (%). TGI (%) reflects the tumor growth inhibition rate. TGI (%) was calculated as follows: TGI (%)=[(1−average tumor volume at the end of administration for a certain treatment group−average tumor volume at the beginning of administration for this treatment group))/(average tumor volume at the end of treatment for a vehicle control group−average tumor volume at the beginning of administration for this vehicle control group)]×100%.
Relative tumor proliferation rate T/C (%): the calculation formula was as follows: T/C (%)=average tumor volume at the end of administration for a certain treatment group/average tumor volume at the end of treatment for the vehicle control group×100%.
Statistical analysis included the mean and standard error of mean (SEM) of tumor volume at each time point in each group. One-way ANOVA was used for comparison among three or more groups. […] SPSS 17.0 was used for all data analysis. p<0.05 was considered a significant difference.

CYP2C19 = biological target: T1, CYP2C19 (Homo sapiens, UniProt P33261); assay: Inhibition of CYP enzyme activity in human liver microsome, CYP2C19; type: in vitro ADME
T1 construct: in the assay of CYP enzyme activity in human liver microsome; from tissue; host or cells: human liver microsome
From the text: The results of the compound disclosed herein and the reference compound Poziotinib in the assay of CYP enzyme activity in human liver microsome were shown in the following table (Table 17).

T1 sequence (P33261 whole entry): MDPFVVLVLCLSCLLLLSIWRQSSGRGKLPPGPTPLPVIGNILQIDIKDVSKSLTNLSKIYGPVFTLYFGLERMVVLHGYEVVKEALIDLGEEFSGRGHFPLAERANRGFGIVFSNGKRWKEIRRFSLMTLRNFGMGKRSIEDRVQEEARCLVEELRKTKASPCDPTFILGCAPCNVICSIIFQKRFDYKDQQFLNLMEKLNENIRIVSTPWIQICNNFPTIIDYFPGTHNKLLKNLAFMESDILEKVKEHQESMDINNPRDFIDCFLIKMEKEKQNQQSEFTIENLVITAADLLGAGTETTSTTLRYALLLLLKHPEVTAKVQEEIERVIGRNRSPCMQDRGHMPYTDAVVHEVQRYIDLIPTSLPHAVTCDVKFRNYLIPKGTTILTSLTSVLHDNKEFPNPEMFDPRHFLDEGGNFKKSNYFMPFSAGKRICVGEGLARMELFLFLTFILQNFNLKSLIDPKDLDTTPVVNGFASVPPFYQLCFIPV

`C=CC(=O)N1[C@@H]2CC[C@H]1C[C@H](Nc1cc3c(Nc4ccc(Cl)c(Cl)c4F)ncnc3cc1OC)C2` [Compound of formula (I)] was tested, and the “inhibitory activity on the proliferation of NCI-N87 cells (in words)” value (NCI-N87 cell) was “significant inhibitory activity”, the “body weight and clinical signs (in words)” value ([1]; 2/1.5 mg/kg) was “varying degrees of body weight loss and dandruff” and the “tumor inhibitory effect (in words)” value ([1]; 2/1.5 mg/kg, compared with the vehicle control group) was “significant tumor inhibitory effect”. The “Tumor volume (Day 21)” value ([1]; 2/1.5 mg/kg, Day 21, Mean + SEM) was 55 ± 13 mm3, the “effect on the body weight of mice (in words)” value ([1]; discussion, high-dose group) was “little effect on the body weight of mice” and the “efficacy at low dose (in words)” value ([1]; low dose of 0.5 mpk) was “comparable to that of the reference compound Poziotnib and the compound of formula (I) at a high dose of 1.5 mpk”. For the same molecule, the “dark yellow urine, suggestion of toxicity (in words)” value ([1]; mouse, in vivo) was “without the toxicity suggestion of dark yellow urine” and the “inhibitory activity on CYP2C19 compared with Poziotinib (in words)” value (CYP2C19) was “comparable to that of the reference compound Poziotinib”.

— patent US20220242851A1, “CRYSTAL FORM AND SALT OF QUINAZOLINE COMPOUND AND PREPARATION METHOD THEREOF” (SHENZHEN JINRUI FOUNDATION BIOTECH CO., LTD, priority 2019, published 2022)
